Assay results published in patent US20080233209A1, “Composition and method of use for the treatment of metabolic syndrome and inflammation” (POLIFENOLES NATURALES, SL, priority 2007, published 2008).
“Also recorded” adds a separate entry of the source. Read-outs that look alike come from different tables or passages of the source.

How the values were obtained:
[1] = Tolerability in the 16-week clinical trial of Example 1; format: in vivo, human
Procedure: Forty-one (n=41) volunteers with an average body weight of 91.5±14.4 kgs (201+9.7 lbs), body fat of 40.4±3.7 kgs (88.8+8 lbs), liver fat content above 10% and average age of 37.4±4.8 years were recruited to take part in a 16-week clinical trial. Daily meal composition was 50% carbohydrate, 30% protein and 20% fat. Food record data, body composition, EER, and blood sample analysis results were assessed on admission and every week for 16-weeks. Energy expenditure rate (EER) was measured by indirect calorimetry. Plasma levels of inflammatory markers alanine aminotransferase (ALT), aspartate aminotransferase (AST), g-glutamyltransferase (GGT) enzymes and C-reactive protein (CRP) were evaluated as measures of liver function, along with diastolic and systolic blood pressure, dual-energy X-ray absorptiometry to determine percent of lean and fat body mass, and liver fat content.
Subjects were randomly assigned to one of 10 treatments or placebo (total 11 groups), which were in softgel capsules and were to be consumed with water 15 to 30 mins. before meals. Each phytomedicine soft-gel capsule provided 100 mg of Undaria pinnatifida (Phaeophyceae) brown marine vegetable extract and 100 mg of cold-pressed pomegranate (Punica granatum, Punicaceae) seed oil.
All subjects completed 16 weeks clinical trial without any reported adverse effects. […]

[2] = fucoxanthin, cited from earlier work
[3] = tested on: mitochondrial uncoupling protein 1 (UCP1); conditions: fucoxanthin; cited from earlier work
[4] = Energy expenditure rate (EER) by indirect calorimetry, 16-week double-blind placebo-controlled trial in obese non-diabetic female volunteers with NAFLD (Example 1); format: in vivo, human; design: key to Effects on EER: NE = No effect; * = significant vs. placebo and vs. baseline, p < 0.05% at the week listed for the duration of the study; *** = significant vs. placebo and vs. baseline, p < 0.001%; conditions: for Effects on EER: 16 weeks
Source text: The objectives of the study were to investigate the effects of different doses of a brown marine vegetable extract standardized by fucoxanthin content, pomegranate seed oil containing a minimum of 70% punicic acid, and the phytomedicine combining, both of fucoxanthin and pomegranate seed oil, on energy expenditure rate (EER) in obese non-diabetic female volunteers with non-alcoholic fatty liver disease (NAFLD) on a moderate calorie restriction diet. Forty-one (n=41) volunteers with an average body weight of 91.5±14.4 kgs (201+9.7 lbs), body fat of 40.4±3.7 kgs (88.8+8 lbs), liver fat content above 10% and average age of 37.4±4.8 years were recruited to take part in a 16-week clinical trial. Daily meal composition was 50% carbohydrate, 30% protein and 20% fat. Food record data, body composition, EER, and blood sample analysis results were assessed on admission and every week for 16-weeks. Energy expenditure rate (EER) was measured by indirect calorimetry. Plasma levels of inflammatory markers alanine aminotransferase (ALT), aspartate aminotransferase (AST), g-glutamyltransferase (GGT) enzymes and C-reactive protein (CRP) were evaluated as measures of liver function, along with diastolic and systolic blood pressure, dual-energy X-ray absorptiometry to determine percent of lean and fat body mass, and liver fat content. Subjects were randomly assigned to one of 10 treatments or placebo (total 11 groups), which were in softgel capsules and were to be consumed with water 15 to 30 mins. before meals. Each phytomedicine soft-gel capsule provided 100 mg of Undaria pinnatifida (Phaeophyceae) brown marine vegetable extract and 100 mg of cold-pressed pomegranate (Punica granatum, Punicaceae) seed oil.

[5] = fucoxanthin, wistar rats; cited from earlier work

Row | Substance | tolerability ([1]; human, in vivo) | body weight ([2]; KK-Ay mice) | WAT ([2]; obese KK-Ay mice) | expression of uncoupling protein UCP1 gene in white adipose tissue (WAT) [3] | Effects on EER vs. placebo and baseline ([4]; 8.40 mg fucoxanthin) | Effects on EER vs. those of 4.20 mg fucoxanthin ([4]; 8.40 mg fucoxanthin) | minimum doses that resulted in statistically significant increases in EER ([4]; 16-week trial, fucoxanthin as mg fucoxanthin/day) | Effects on EER ([4]; Fucoxanthin 1.68 mg/day) | Effects on EER ([4]; Fucoxanthin 2.52 mg/day) | Effects on EER ([4]; Fucoxanthin 4.20 mg/day) | Effects on EER ([4]; Fucoxanthin 8.40 mg/day) | EER in obese subjects (overall) ([4]; oral supplementation, effect dose-dependent and time-dependent) | WAT [5] | tolerability ([1]; 16 weeks, all subjects, no reported adverse effects)
1 | Pomegranate Seed Oil | well tolerated | – | – | – | – | – | – | – | – | – | – | – | – | –
2 | fucoxanthin | – | significant reduction | reduced WAT | upregulates | highly significant | significant | 2.52 mg | NE | * (* = significant vs. placebo and vs. baseline, p < 0.05% at the week listed for the duration of the study) | * (* = significant vs. placebo and vs. baseline, p < 0.05% at the week listed for the duration of the study) | *** (*** = significant vs. placebo and vs. baseline, p < 0.001%) | increased; also recorded: statistically significant dose-dependent increase | reduced WAT | well tolerated
